From patent US7160888B2, “[1,8]naphthyridin-2-ones and related compounds for the treatment of schizophrenia” (Warner Lambert Company LLC, priority 2003, dated 2007)

Molecular target: D2 receptor (Homo sapiens, UniProt P14416)
Experiment: [3H]Thymidine uptake assay for D2 intrinsic activity
Type: cell-based
Conditions: test compound 1 μM, 1 μM Quinpirole = 100% intrinsic activity
Protocol: D2 intrinsic activity of title compounds of the Examples, below, was determined using the [^3H]thymidine uptake assay described below.
[^3H]Thymidine Uptake Assay for D2 Intrinsic Activity
Cells are serum deprived by washing twice with 200 μl of serum-free media. 90 μl serum-free media was added to each well. The plates ware incubated for two to three hours. 10 μl of serum-containing media, as a positive control, vehicle (serum-free media), negative control (an antagonist) or test compounds and standards (10 μl of a 10 μM solution for a final concentration of 1 μM) in serum-free media were added to wells. The plates are returned to the incubator. Eighteen hours later [^3H]thymidine is added (0.5 μCi/well in 10 μl of serum-free media) and the plates are returned to the incubator. […] The plates are returned to the incubator, once again. One hour later the assay is terminated by rapid filtration through Whatman GF/C glass fiber filters. Filters are washed four times with 500 ml of 50 mM Tris-HCl pH 7.0 buffer, for example, using a Brandel MLR-96T cell harvester. […] Intrinsic activity is defined as total uptake (1 μM Quinpirole) minus serum-free media (no uptake). Test compounds are compared to 1 μM Quinpirole (full DA agonist), which was classified as 100% intrinsic activity.

Chain of D2 receptor (P14416 whole entry): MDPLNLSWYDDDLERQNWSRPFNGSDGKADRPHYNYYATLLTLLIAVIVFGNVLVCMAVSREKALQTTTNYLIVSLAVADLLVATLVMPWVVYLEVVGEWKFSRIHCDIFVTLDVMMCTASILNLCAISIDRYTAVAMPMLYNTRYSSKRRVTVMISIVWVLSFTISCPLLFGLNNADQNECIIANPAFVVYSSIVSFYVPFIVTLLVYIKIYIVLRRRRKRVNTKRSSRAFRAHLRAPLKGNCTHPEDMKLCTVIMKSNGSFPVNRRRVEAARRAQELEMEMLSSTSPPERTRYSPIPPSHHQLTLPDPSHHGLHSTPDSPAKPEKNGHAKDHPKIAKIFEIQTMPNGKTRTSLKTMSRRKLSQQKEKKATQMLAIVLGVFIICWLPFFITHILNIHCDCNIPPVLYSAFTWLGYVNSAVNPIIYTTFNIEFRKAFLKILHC

SMILES | Emax at 1 µM (Table 1) | Emax at 1 µM (Table 2)
O=c1ccc2ccc(OCCCCN3CCN(c4ccc(F)c(Cl)c4Cl)CC3)nc2[nH]1 [Example B24, 7-{4-[4-(2,3-Dichloro-4-fluoro-phenyl)-piperazin-1-yl]-butoxy}-1H-[1,8]naphthyridin-2-one] | 10% | 
O=c1ccc2ccc(OCCCCN3CCN(c4cccc5[nH]ccc45)CC3)nc2[nH]1 [Example B24′, 7-{4-[4-(1H-Indol-4-yl)-piperazin-1-yl]-butoxy}-1H-[1,8]naphthyridin-2-one] |  | 42%
O=c1ccc2ccc(OCCCCN3CCN(c4cccc5sccc45)CC3)nc2[nH]1 [Example B25′, 7-[4-(4-Benzo[b]thiophen-4-yl-piperazin-1-yl)-butoxy]-1H-[1,8]naphthyridin-2-one] |  | 21%
O=c1ccc2ccc(OCCCCN3CCN(c4ccccc4-c4ccccc4)CC3)nc2[nH]1 [Example B26, 7-[4-(4-Biphenyl-2-yl-piperazin-1-yl)-butoxy]-1H-[1,8]naphthyridin-2-one] | 23% | 
O=c1ccc2ccc(OCCCCN3CCN(c4cccc5ccoc45)CC3)nc2[nH]1 [Example B26′, 7-[4-(4-Benzofuran-7-yl-piperazin-1-yl)-butoxy]-1H-[1,8]naphthyridin-2-one] |  | 26%
COc1cccc(N2CCN(CCCCOc3ccc4ccc(=O)[nH]c4n3)CC2)c1C [Example B27, 7-{4-[4-(3-Methoxy-2-methyl-phenyl)-piperazin-1-yl]-butoxy}-1H-[1,8]naphthyridin-2-one] | 47% | 
CC(=O)N1CCCc2c(N3CCN(CCCCOc4ccc5ccc(=O)[nH]c5n4)CC3)cccc21 [Example B27′, 7-{4-[4-(1-Acetyl-1,2,3,4-tetrahydro-quinolin-5-yl)-piperazin-1-yl]-butoxy}-1H-[1,8]naphthyridin-2-one] |  | 34%
O=c1ccc2ccc(OCCCCN3CCN(c4cccc(F)c4Cl)CC3)nc2[nH]1 [Example B28, 7-{4-[4-(2-Chloro-3-fluoro-phenyl)-piperazin-1-yl]-butoxy}-1H-[1,8]naphthyridin-2-one] | 31% | 
CN1CCCc2c1cccc2N1CCN(CCCCOc2ccc3ccc(=O)[nH]c3n2)CC1 [Example B28′, 7-{4-[4-(1-Methyl-1,2,3,4-tetrahydro-quinolin-5-yl)-piperazin-1-yl]-butoxy}-1H-[1,8]naphthyridin-2-one] |  | 44%
O=c1ccc2ccc(OCCCCN3CCN(c4cccc(C5CC5)n4)CC3)nc2[nH]1 [Example B29, 7-{4-[4-(6-Cyclopropyl-pyridin-2-yl)-piperazin-1-yl]-butoxy}-1H-[1,8]naphthyridin-2-one] | 32% | 
CCN1CCCc2c1cccc2N1CCN(CCCCOc2ccc3ccc(=O)[nH]c3n2)CC1 [Example B29′, 7-{4-[4-(1-Ethyl-1,2,3,4-tetrahydro-quinolin-5-yl)-piperazin-1-yl]-butoxy}-1H-[1,8]naphthyridin-2-one] |  | 26%
O=c1ccc2ccc(OCCCCN3CCN(c4ncccn4)CC3)nc2[nH]1 [Example B30, 7-[4-(4-Pyrimidin-2-yl-piperazin-1-yl)-butoxy]-1H-[1,8]naphthyridin-2-one] | 83% | 
COc1ccc2cccc(N3CCN(CCCCOc4ccc5ccc(=O)[nH]c5n4)CC3)c2n1 [Example B30′, 7-{4-[4-(2-Methoxy-quinolin-8-yl)-piperazin-1-yl]-butoxy}-1H-[1,8]naphthyridin-2-one] |  | 42%
COc1ccnc(N2CCN(CCCCOc3ccc4ccc(=O)[nH]c4n3)CC2)n1 [Example B31, 7-{4-[4-(4-Methoxy-pyrimidin-2-yl)-piperazin-1-yl]-butoxy}-1H-[1,8]naphthyridin-2-one] | 76% | 
O=c1ccc2ccc(OCCCCN3CCN(c4cccc5c4CCC5)CC3)nc2[nH]1 [Example B32, 7-[4-(4-Indan-4-yl-piperazin-1-yl)-butoxy]-1H-[1,8]naphthyridin-2-one] | 19% | 
O=c1ccc2ccc(OCCCCN3CCN(c4cccc5c4CCCC5)CC3)nc2[nH]1 [Example B33, 7-{4-[4-(5,6,7,8-Tetrahydro-naphthalen-1-yl)-piperazin-1-yl]-butoxy}-1H-[1,8]naphthyridin-2-one] | 26% | 
O=c1ccc2ccc(OCCCCN3CCN(c4cccc5ncc(F)cc45)CC3)nc2[nH]1 [Example B34′, 7-{4-[4-(3-Fluoro-quinolin-5-yl)-piperazin-1-yl]-butoxy}-1H-[1,8]naphthyridin-2-one] |  | 35%
O=C1CCCc2cccc(N3CCN(CCCCOc4ccc5ccc(=O)[nH]c5n4)CC3)c21 [Example B35, 7-{4-[4-(8-Oxo-5,6,7,8-tetrahydro-naphthalen-1-yl)-piperazin-1-yl]-butoxy}-1H-[1,8]naphthyridin-2-one] | 20% | 
CC1(C)CCc2cccc(N3CCN(CCCCOc4ccc5ccc(=O)[nH]c5n4)CC3)c2C1=O [Example B36, 7-{4-[4-(7,7-Dimethyl-8-oxo-5,6,7,8-tetrahydro-naphthalen-1-yl)-piperazin-1-yl]-butoxy}-1H-[1,8]naphthyridin-2-one] | 39% | 

SMILES | Emax at 1 µM (Table 1) | Emax at 1 µM (Table 2)
O=c1ccc2ccc(OCCCCN3CCN(c4cccc5ccc(=O)[nH]c45)CC3)nc2[nH]1 [Example B36′, 7-{4-[4-(2-Oxo-1,2-dihydro-quinolin-8-yl)-piperazin-1-yl]-butoxy}-1H-[1,8]naphthyridin-2-one] |  | 36%
O=C1CCc2cccc(N3CCN(CCCCOc4ccc5ccc(=O)[nH]c5n4)CC3)c2N1 [Example B37′, 7-{4-[4-(2-Oxo-1,2,3,4-tetrahydro-quinolin-8-yl)-piperazin-1-yl]-butoxy}-1H-[1,8]naphthyridin-2-one] |  | 39%
CN1C(=O)CCc2cccc(N3CCN(CCCCOc4ccc5ccc(=O)[nH]c5n4)CC3)c21 [Example B38′, 7-{4-[4-(1-Methyl-2-oxo-1,2,3,4-tetrahydro-quinolin-8-yl)-piperazin-1-yl]-butoxy}-1H-[1,8]naphthyridin-2-one] |  | 46%
O=c1ccc2ccc(OCCCCN3CCN(c4cccc5nonc45)CC3)nc2[nH]1 [Example B39′, 7-[4-(4-Benzo[1,2,5]oxadiazol-4-yl-piperazin-1-yl)-butoxy]-1H-[1,8]naphthyridin-2-one] |  | 29%
O=C1CCc2cccc(N3CCN(CCCCOc4ccc5ccc(=O)[nH]c5n4)CC3)c2C1 [Example B40, 7-{4-[4-(7-Oxo-5,6,7,8-tetrahydro-naphthalen-1-yl)-piperazin-1-yl]-butoxy}-1H-[1,8]naphthyridin-2-one] | 36% | 
O=c1ccc2ccc(OCCCCN3CCN(c4cccc5nsnc45)CC3)nc2[nH]1 [Example B40′, 7-[4-(4-Benzo[1,2,5]thiadiazol-4-yl-piperazin-1-yl)-butoxy]-1H-[1,8]naphthyridin-2-one] |  | 49%
O=c1ccc2ccc(OCCCCN3CCN(c4cccc5c4CCCC5(F)F)CC3)nc2[nH]1 [Example B43, 7-{4-[4-(5,5-Difluoro-5 6,7,8-tetrahydro-naphthalen-1-yl)-piperazin-1-yl]-butoxy}-1H-[1,8]naphthyridin-2-one] | 18% | 
O=C1CCc2cccc(N3CCN(CCCCOc4ccc5ccc(=O)[nH]c5n4)CC3)c21 [Example B44, 7-{4-[4-(3-Oxo-indan-4-yl)-piperazin-1-yl]-butoxy}-1H-[1,8]naphthyridin-2-one] | 27% | 
O=c1ccc2ccc(OCCCCN3CCN(c4cccc5c4CC(F)(F)C5)CC3)nc2[nH]1 [Example B46, 7-{4-[4-(2,2-Difluoro-indan-4-yl)-piperazin-1-yl]-butoxy}-1H-[1,8]naphthyridin-2-one] | 29% | 
O=c1ccc2ccc(OCCCCN3CCN(c4cccc5ccccc45)CC3)nc2[nH]1 [Example B47, 7-[4-(4-Naphthalen-1-yl-piperazin-1-yl)-butoxy]-1H-[1,8]naphthyridin-2-one] | 44% | 
O=c1ccc2ccc(OCCCCN3CCN(c4cccc5cccc(F)c45)CC3)nc2[nH]1 [Example B50, 7-{4-[4-(8-Fluoro-naphthalen-1-yl)-piperazin-1-yl]-butoxy}-1H-[1,8]naphthyridin-2-one] | 51% | 
O=c1ccc2ccc(OCCCCN3CCN(c4cccc5c(F)cccc45)CC3)nc2[nH]1 [Example B51, 7-{4-[4-(5-Fluoro-naphthalen-1-yl)-piperazin-1-yl]-butoxy}-1H-[1,8]naphthyridin-2-one] | 36% | 
O=c1ccc2ccc(OCCCCN3CCN(c4ccc(F)c5ccccc45)CC3)nc2[nH]1 [Example B52, 7-{4-[4-(4-Fluoro-naphthalen-1-yl)-piperazin-1-yl]-butoxy}-1H-[1,8]naphthyridin-2-one] | 17% | 
O=c1ccc2ccc(OCCCCN3CCN(c4c(F)ccc5ccccc45)CC3)nc2[nH]1 [Example B54, 7-{4-[4-(2-Fluoro-naphthalen-1-yl)-piperazin-1-yl]-butoxy}-1H-[1,8]naphthyridin-2-one] | 15% | 
O=c1ccc2ccc(OCCCCN3CCN(c4cccc5ccc(Cl)cc45)CC3)nc2[nH]1 [Example B56, 7-{4-[4-(7-Chloro-naphthalen-1-yl)-piperazin-1-yl]-butoxy}-1H-[1,8]naphthyridin-2-one] | 28% | 
O=c1ccc2ccc(OCCCCN3CCN(c4cccc5cc(Cl)ccc45)CC3)nc2[nH]1 [Example B57, 7-{4-[4-(6-Chloro-naphthalen-1-yl)-piperazin-1-yl]-butoxy}-1H-[1,8]naphthyridin-2-one] | 21% | 
O=c1ccc2ccc(OCCCCN3CCN(c4cccc5c(Cl)cccc45)CC3)nc2[nH]1 [Example B58, 7-{4-[4-(5-Chloro-naphthalen-1-yl)-piperazin-1-yl]-butoxy}-1H-[1,8]naphthyridin-2-one] | 42% | 
O=c1ccc2ccc(OCCCCN3CCN(c4cccc5cccc(Cl)c45)CC3)nc2[nH]1 [Example B59, 7-{4-[4-(8-Chloro-naphthalen-1-yl)-piperazin-1-yl]-butoxy}-1H-[1,8]naphthyridin-2-one] | 37% | 
COc1ccc2cccc(N3CCN(CCCCOc4ccc5ccc(=O)[nH]c5n4)CC3)c2c1 [Example B60, 7-{4-[4-(7-Methoxy-naphthalen-1-yl)-piperazin-1-yl]-butoxy}-1H-[1,8]naphthyridin-2-one] | 28% | 
